Reference: article PMC12299981, “Human Metabolism of Sirolimus Revisited” (Metabolites, 2025)

Experiments:
[1] = test system: pooled human liver microsomes (HLM); test: Formation kinetics of SRL metabolites by pooled human liver microsomes; type: in vitro ADME; settings: for Vmax: apparent Vmax of formation of the metabolite from sirolimus; for Vmax / Km: Michaelis–Menten fit; for Km: apparent Km of formation of the metabolite from sirolimus; for CLint: apparent intrinsic clearance of formation of the metabolite, CLint = Vmax/Km
Method: (§1) Apparent enzyme kinetic parameters for the major SRL metabolites were assessed. […] Before the addition of the SRL, the NADPH-generating system was preincubated at 37 °C (type C24 incubator shaker, New Brunswick Scientific, Edison, NJ, USA) for 5 min. […] The final volume of the reaction solution was 500 μL, and the reaction was quenched by the addition of a 1:1 volume of ice-cold acetonitrile. Following protein precipitation, samples were briefly vortexed and subsequently centrifuged at 4 °C and 13,000× g for 10 min. The supernatant was transferred to a 2-mL HPLC glass vial and analyzed using high-performance liquid chromatography/tandem mass spectrometry (LC-MS/MS). Representative control incubations without HLMs, without drug, or without the NADPH-generating system (all in quadruplicate) were carried out under the same conditions with every SRL HLM metabolism batch.
(§2) For data analysis, we utilized Sciex Analyst Software (version TF1.7.1) to process and interpret mass spectrometry data. […] Kinetics data was fitted using the GraphPad Prism Enzyme Kinetics Module (Version 10.0.2, for Windows, GraphPad Software, Boston, MA, USA).
(§3) The formation rates of hydroxy SRL and desmethyl SRL were analyzed and fitted using Michaelis–Menten kinetics. This approach enables the determination of kinetic parameters such as Vmax (maximum reaction velocity) and Km (substrate concentration at half-maximal velocity), which provide insight into the enzymatic activity and substrate affinity for these metabolites. […] To compare the formation of the various metabolites and to predict the human hepatic clearance, the apparent intrinsic clearances of the formation of the metabolites (CLint = Vmax/Km) were calculated.

[2] = test system: phytohemagglutinin-stimulated human lymphocyte proliferation; set-up: method as in PMID 1352208; settings: percent of the immunosuppressive activity of SRL; cited from earlier work
[3] = Formation kinetics of SRL metabolites by pooled human liver microsomes; type: in vitro ADME; settings: human, pooled human liver microsomes, pH 7.4; sum over metabolite formation, pooled HLM, CLint = Vmax/Km; read-out: total Clint derived from the formation of hydroxylated and demethylated SRL metabolites
Method: as §1, §2, §3

[4] = set-up: method as in doi:10.1016/S0955-470X(10)80014-X, PMID 11165091; settings: stability is increased in a mildly acidic environment; cited from earlier work

Compound | Vmax ([1]; n = 4) [pmol/mg protein/min] | Km ([1]; n = 4) [µM] | CLint [1] [µL/mg protein/min] | other results
27-O-Desmethyl sirolimus [27-O-desmethyl SRL] | 0.552 | – | – | –
11-Hydroxy sirolimus [11-Hydroxy SRL] | 6.203 | – | – | Vmax ([1]; n = 4, listed as 11-hydroxy SRL): 6.2 pmol/mg protein/min
CO[C@@H]1C[C@H](C[C@@H](C)[C@@H]2CC(=O)[C@H](C)/C=C(\C)[C@@H](O)[C@@H](OC)C(=O)[C@H](C)C[C@H](C)/C=C/C=C/C=C(\C)[C@@H](O)C[C@@H]3CC[C@@H](C)[C@@](O)(O3)C(=O)C(=O)N3CCCC[C@H]3C(=O)O2)CC[C@H]1O [16-O-desmethyl SRL, 16-O-Desmethyl sirolimus] | 1.828 | 24.4 | 0.08 | –
COC1CC2CCC(C)C(O)(O2)C(=O)C(=O)N2CCCCC2C(=O)OC(C(C)CC2CCC(O)C(O)C2)CC(=O)C(C)C=C(C)C(O)C(OC)C(=O)C(C)CC(C)C=CC=CC=C1C (stereo not drawn) [39-O-desmethyl SRL, 39-O-Desmethyl sirolimus] | 9.6 | 15 | 0.65 | Vmax ([1]; n = 4, listed as 39-O-desmthyl SRL): 9.647 pmol/mg protein/min; immunosuppressive activity relative to SRL [2]: 10%
CO[C@H]1C[C@@H]2CC(O)[C@@H](C)[C@@](O)(O2)C(=O)C(=O)N2CCCC[C@H]2C(=O)O[C@H]([C@H](C)C[C@@H]2CC[C@@H](O)[C@H](OC)C2)CC(=O)[C@H](C)/C=C(\C)[C@@H](O)[C@@H](OC)C(=O)[C@H](C)C[C@H](C)/C=C/C=C/C=C/1C (stereo partly drawn) [12-Hydroxy SRL, 12-Hydroxy sirolimus] | 4.264 | 7.21 | 0.6 | Vmax ([1]; n = 4, listed as 12-hydroxy SRL): 4.3 pmol/mg protein/min
23/24-Hydroxy sirolimus [23/24-Hydroxy SRL] | 2.221 | – | – | –
CO[C@H]1C[C@@H]2CC[C@@H](C)[C@@](O)(O2)C(=O)C(=O)N2CCCC[C@H]2C(=O)O[C@H]([C@H](C)C[C@@H]2CC[C@@H](O)[C@H](OC)C2)CC(=O)[C@H](C)/C=C(\C)[C@@H](O)[C@@H](OC)C(=O)[C@H](C)C[C@H](C)/C=C/C=C/C=C/1C [SRL, Sirolimus] | – | – | – | microsomal CLint [3]: 2.35 µL/min/mg; stability in aqueous solutions [4]: low stability in aqueous solutions
